Earlier results in patent publication US11503831B2, “Arthropoda repellent composition” (SanderStrothmann GmbH, priority 2019, dated 2022).

Settings: in vivo

Share of topically applied dose absorbed by the skin: approximately 50%
Time to peak plasma levels: 1 h
SMILES: CCN(CC)C(=O)c1cccc(C)c1 [N,N-diethyl toluamide, N,N′-diethyl toluamide]
